Laboratory results as given in PubChem BioAssay AID489006 (Sanford-Burnham Center for Chemical Genomics, 2010).
The source made the active and inactive calls. No rule for the calls is given here.

The compounds below were run on Jurkat NF-kB reporter, luminescence (assay: Jurkat NF-kB signaling inhibitors – cell-based, luminescence, selectivity assay for B-cell receptor NF-kB inhibitor project, dose response (AID 489006)).
`COc1cc(C(=O)Nc2cc(C)c(OCC(=O)N3CCOCC3)c(C)c2)cc(OC)c1OC` was tested, and the IC50 was > 80 µM (inactive).
`COc1ccc(OCc2cccc(C(=O)NN)c2)cc1` showed an IC50 of 5.14 µM.
In the case of `O=C(CCCN1C(=O)S/C(=C/C=C/c2ccccc2)C1=O)Nc1ccc(C(=O)O)cc1`, the IC50 is reported as > 80 µM (inactive).
Compound `Cc1nc2cc(-c3ccc(Cl)cc3)nn2c(C)c1CCC(=O)NCc1ccco1` has an IC50 of 0.34 µM.
With `COc1cc(-c2nc3n(n2)C(c2ccc(F)cc2)C2=C(CCCC2=O)N3)cc(OC)c1OC` (centres undefined) the IC50 was > 80 µM (inactive).
For `CC1(c2nnc(-c3cccc(Cl)c3)o2)CC(c2cccc(Cl)c2)=NO1` (centres undefined), the IC50 was > 80 µM (inactive).
With `COc1ccc(/C=C/c2ccccc2)cc1[C@H]1[C@H]2C=CC[C@@H](C)[C@@H]2C(=O)N1Cc1ccccc1` the IC50 was > 80 µM (inactive).
`Cc1ccc(O)c(NC(=O)COc2cc(C)ccc2C)c1` was tested, and the IC50 was > 80 µM (inactive).
In the case of `CCn1c(=O)cc(SCC(=O)N2CCOCC2)c2ccccc21`, the IC50 is reported as > 80 µM (inactive).
`COc1ccc(/C=C2\SC(=S)N(CCC(=O)Nc3ccc(C(=O)O)cc3)C2=O)cc1OC` was tested, and the IC50 was > 80 µM (inactive).
With `C/C=C(/C)C(=O)OC1Cc2c(ccc3ccc(=O)oc23)OC1(C)C` (centres undefined) the IC50 was > 80 µM (inactive).
In the case of `Cc1cc(OCC(=O)NC2CC2)c2c(C)c(C)c(=O)oc2c1`, the IC50 is reported as > 80 µM (inactive).
In the case of `COc1ccc(-c2noc(N3CCC(C(=O)Nc4cccc(OC)c4)CC3)n2)cc1`, the IC50 is reported as > 80 µM (inactive).
With `CCC(CO)Oc1cc(NCc2ccccc2O)c2ncn(C(C)C)c2c1` (centres undefined) the IC50 was > 80 µM (inactive).
`CCOc1ccc(/C=C2\SC(=S)N(CCC(=O)Nc3cccc(C(=O)O)c3)C2=O)cc1` was tested, and the IC50 was > 80 µM (inactive).
With `Cc1c(CC(=O)NCCCC(=O)O)c(=O)oc2cc3c(cc12)CCC(C)(C)O3` the IC50 was 4.17 µM.
In the case of `COc1ccc(NC(=O)c2nnn(Cc3cccc(F)c3)c2N)c(OC)c1`, the IC50 is reported as > 80 µM (inactive).
In the case of `Cn1nc(-c2ccc(N3CCOCC3)c(NS(=O)(=O)c3ccccc3)c2)c2ccccc2c1=O`, the IC50 is reported as > 80 µM (inactive).
`CC1Cc2ccccc2N1S(=O)(=O)c1cnc(Cl)c(Cl)c1` (centres undefined) was tested, and the IC50 was 31.6 µM (inactive).
`CCn1c(=O)cc(SCC(=O)N2CCC3(CC2)OCCO3)c2ccccc21` was tested, and the IC50 was > 80 µM (inactive).
`COC(=O)CSc1nnc(-c2sc3ccccc3c2Cl)o1` showed an IC50 of 3.43 µM.
In the case of `CCOc1ccc(-c2nc(CSCC(=O)NCc3ccco3)c(C)o2)cc1`, the IC50 is reported as 64 µM (inactive).
With `Cc1[nH]c2ccccc2c1C(=O)CN1C(=O)NC2(CC(C)CC(C)(C)C2)C1=O` (centres undefined) the IC50 was 52.7 µM (inactive).
In the case of `COc1ccc(/C=C2/SC(=S)N(CCCC(=O)Nc3ccc(O)cc3)C2=O)cc1OC`, the IC50 is reported as > 80 µM (inactive).
In the case of `Cc1nc2cc(-c3cccc(F)c3)nn2c(C)c1CCC(=O)NC(C)CCc1ccco1` (centres undefined), the IC50 is reported as 4.14 µM.
In the case of `Cc1nc([N+](=O)[O-])c(Sc2nc3ccc([N+](=O)[O-])cc3[nH]2)n1Cc1ccccc1`, the IC50 is reported as 7.42 µM.
Compound `O=C(CCCN1C(=O)/C(=C/c2ccccc2Cl)SC1=S)Nc1ccccn1` has an IC50 of 9.52 µM.
With `CCC(CC)C(=O)Nc1ccc(Sc2ccc([N+](=O)[O-])cc2)cc1` the IC50 was 6.83 µM.
For `Cn1c(=O)n(C)c2cc(NC(=O)CSc3nnc(-c4ccccc4O)n3-c3ccccc3)ccc21`, the IC50 was 50.1 µM (inactive).
With `CCN1C(=O)c2cccc3c(NC(=O)c4cccc(N5C(=O)CCC5=O)c4)ccc1c23` the IC50 was > 80 µM (inactive).
For `Cc1ccc(-n2c(-c3ccccc3)c[n+]3c2CCc2ccccc2-3)c(C)c1`, the IC50 was 12.5 µM.
With `CCN(CC(=O)Nc1c(F)cccc1F)C(=O)c1cc([N+](=O)[O-])ccc1N1CCCCC1` the IC50 was > 80 µM (inactive).
For `O=C1CCC2S/C(=C/Nc3ccc(C(F)(F)F)cc3)C(=O)N12` (centres undefined), the IC50 was 0.18 µM.
Work on `N#Cc1ccccc1COc1ccc(/C=C/C(=O)O)cc1` yielded an IC50 of 1.48 µM.
With `CCOc1ccc(NC(=O)CCCc2cc(-c3ccc(OCC)cc3)on2)cc1` the IC50 was > 80 µM (inactive).
`COc1ccc(-c2ccc(C(C)=O)cc2)cc1[C@H]1[C@H]2C=CC[C@@H](C)[C@@H]2C(=O)N1Cc1ccccc1` was tested, and the IC50 was > 80 µM (inactive).
With `Cn1c(=O)cc(Nc2ccccc2)c2c(=O)n(-c3ccccc3)c(=O)n(-c3ccccc3)c21` the IC50 was 71.9 µM (inactive).
With `COc1ccc(-c2noc(N3CCC(C(=O)Nc4ccc(F)cc4F)CC3)n2)cc1` the IC50 was > 80 µM (inactive).
For `COc1ccc(C(C(=O)NC2CCCCC2)N(C(=O)CCl)c2ccc(OC)cc2)cc1` (centres undefined), the IC50 was 0.65 µM.
`O=C(CCCN1C(=O)S/C(=C\c2ccccc2)C1=O)NNC(=O)c1ccccc1O` was tested, and the IC50 was 1.06 µM.
With `Cc1ccc(C(=O)NNC(=O)CCCN2C(=O)/C(=C/c3ccccc3Cl)SC2=S)cc1` the IC50 was 4.81 µM.
In the case of `COc1ccc(C=C(C(C)=O)C(C)=O)cc1OC`, the IC50 is reported as 6.23 µM.
`COc1ccc(/C=C2\SC(=S)N(CCCC(=O)NNC(=O)c3ccccc3O)C2=O)cc1` showed an IC50 of 0.58 µM.
`O=C(O)CCn1c(O)c(C=C2N=c3ccccc3=N2)sc1=S` gave an IC50 of 1.46 µM.
For `Cn1c(=O)cc(OCCCC(=O)NC2CCCC2)c2ccccc21`, the IC50 was 39.5 µM (inactive).
With `Cc1cccc(C(=O)Nc2ccc(CC(=O)O)cc2)c1` the IC50 was 7.41 µM.
Work on `Cc1ccc(/C=C2/SC(=S)N(CCCC(=O)Nc3ccc(O)cc3)C2=O)cc1` yielded an IC50 of 19.8 µM.
With `Cc1nc2cc(-c3ccccc3)nn2c(C)c1CCC(=O)N1CCC2(CC1)OCCO2` the IC50 was > 80 µM (inactive).
For `COC(=O)C1=C(c2ccc(-c3ccccc3)c(F)c2)C[C@@H]2CC[C@H]1N2C(=O)N1CCCC1`, the IC50 was 35.8 µM (inactive).
In the case of `COc1ccc(-n2ncc3c(N4CCC(C(N)=O)CC4)ncnc32)cc1`, the IC50 is reported as > 80 µM (inactive).
`COc1ccc(-n2nnnc2S(=O)(=O)CC(=O)N2CCCCC2)cc1` showed an IC50 of 2.25 µM.
With `N=c1ccn2c(n1)O[C@H]1[C@H](O)[C@@H](CO)O[C@H]12` the IC50 was 0.64 µM.
With `COCCNC(=O)CSCc1nc(-c2ccc(SC)cc2)oc1C` the IC50 was > 80 µM (inactive).
In the case of `CCC(C)NC(=O)c1c(N)n(/N=C/c2ccccn2)c2nc3ccccc3nc12` (centres undefined), the IC50 is reported as 22.7 µM (inactive).
With `CC(=O)Nc1ccc(Nc2nc(-c3sc(NC(C)=O)nc3C)cs2)cc1` the IC50 was 8.63 µM.
Work on `COc1ccc(OCc2cccc(C(=O)Nc3cc(C)on3)c2)cc1` yielded an IC50 of 3.77 µM.
Work on `CCOC(=O)Cc1ccc(NC(=O)c2ccc(C(C)(C)C)cc2)cc1` yielded an IC50 of 0.25 µM.
For `N=c1c2c(n(Cc3cccc(Cl)c3)c3c1CCC3)CCCC2`, the IC50 was 27.6 µM (inactive).
Compound `CN(C)CCCN=Cc1c(-c2ccccc2)[nH]n(-c2nc3ccccc3s2)c1=O` has an IC50 of 0.88 µM.
For `O=C(NNC(=O)c1ccccc1O)c1ccc(Cl)c(S(=O)(=O)N2CCc3ccccc32)c1`, the IC50 was > 80 µM (inactive).
In the case of `COc1ccc(-c2nc(CSCC(=O)NCc3ccco3)c(C)o2)cc1`, the IC50 is reported as 66.8 µM (inactive).
In the case of `O=C(NCCCN1CCOCC1)c1cc(-c2ccc(Br)cc2)on1`, the IC50 is reported as 59.5 µM (inactive).
`Cc1ccc(S(=O)(=O)CC2CSc3nc4ccccc4n32)cc1` (centres undefined) was tested, and the IC50 was > 80 µM (inactive).
In the case of `Cc1ccc(/C=C2\SC(=S)N(CCCC(=O)Nc3ccc(O)cc3)C2=O)cc1`, the IC50 is reported as 18.9 µM.
In the case of `Cc1cc(C)c2nc(NC(=O)[C@@H](NC(=O)c3cccc(S(=O)(=O)N4CCOCC4)c3)C(C)C)sc2c1`, the IC50 is reported as 20.8 µM (inactive).
With `Cc1ccc(-c2nn3c(C)nnc3c3ccccc23)cc1S(=O)(=O)NCc1ccco1` the IC50 was 46.7 µM (inactive).
In the case of `COc1cc(Br)c(C(=O)c2nccc3cc(OC)c(OC)cc23)cc1OC`, the IC50 is reported as > 80 µM (inactive).
In the case of `CC1CN(S(=O)(=O)c2ccc(C(=O)Nc3nc(-c4cc5ccccc5o4)cs3)cc2)CC(C)O1` (centres undefined), the IC50 is reported as 49.9 µM (inactive).
In the case of `CN1CCN(C(=O)c2ccccc2N(Cc2ccccc2)S(=O)(=O)c2ccccc2)CC1`, the IC50 is reported as > 80 µM (inactive).
